Laboratory results published in the supplement of paper PMC11208160.

Assay: recombinant barcode read abundance after kanamycin selection (control-corrected) (log10(CPM+1)); higher = more efficient recombination; sequences stand for … in AGTGCAGAGAAAATCGGCCAGTTTTCTCTGCCTGCAGTCCGCATGCCGT…AGATTTATGCAGCGGACTGCCTTTCTCCCAAAGTGATAAACCGGACAGTATCATGGACCGGTTTTCCCGGTAATCCGTATTTGCAAGGTTGGTTTCACT; site = the 11-nt target
Method in brief: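 Two replicates per condition were plated: chloramphenicol/ampicillin LB agar for the control, and chloramphenicol/ampicillin/kanamycin with 0.1 mM IPTG for selection. The pooled E. coli screen behind them paired targets with IS621 bridge RNA target-binding loops. Recombination efficiency is expressed from averaged, control-corrected barcode counts per million at recombinant junctions, as log10(CPM+1).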
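Further: IS621 recombinase and bridge RNA in Escherichia coli cells.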

Sequence: GTATCGTCTTGGGTTCTAACCTGTTGCCT (site GTATGGTCTAC)
- recombinant barcode read abundance (log10): 0.111

Sequence: GTATCTACTTGGGTTCTAACCTGTTGCCT (site GAATCTACTAG)
- recombinant barcode read abundance (log10): 0

Sequence: GTATCTACTTGGGTTCTAACCTGTTGCCT (site GCATCTACTAG)
- recombinant barcode read abundance (log10): 0.0197

Sequence: GTATCTACTTGGGTTCTAACCTGTTGCCT (site GGATCTACTAG)
- recombinant barcode read abundance (log10): 0.25

Sequence: GTATCTACTTGGGTTCTAACCTGTTGCCT (site GTATCTACTAG)
- recombinant barcode read abundance (log10): 0.069

Sequence: GTATGCCCTTGGGTTCTAACCTGTTGCTA (site GTATCCACTTA)
- recombinant barcode read abundance (log10): 0.273

Sequence: GTATGCCCTTGGGTTCTAACCTGTTGCTA (site GTATGCCCTTA)
- recombinant barcode read abundance (log10): 1.12

Sequence: GTATTAGCTTGGGTTCTAACCTGTTGCCG (site GAATTAGCTCC)
- recombinant barcode read abundance (log10): 0.128

Sequence: GTATTAGCTTGGGTTCTAACCTGTTGCCG (site GTATTAGCTCG)
- recombinant barcode read abundance (log10): 1.44

Sequence: GTCAAACCTTGGGTTCTAACCTGTTGCTG (site GTCAAACCTCA)
- recombinant barcode read abundance (log10): 0.974

Sequence: GTCAAACCTTGGGTTCTAACCTGTTGCTG (site GTCAACCCTCA)
- recombinant barcode read abundance (log10): 0.232

Sequence: GTCAAACCTTGGGTTCTAACCTGTTGCTG (site GTCAAGCCTCA)
- recombinant barcode read abundance (log10): 0.0163

Sequence: GTCAAACCTTGGGTTCTAACCTGTTGCTG (site GTCAATCCTCA)
- recombinant barcode read abundance (log10): 0.0782

Sequence: GTCAAGCCTTGGGTTCTAACCTGTTGCTG (site GTCAAACCTCA)
- recombinant barcode read abundance (log10): 0.0753

Sequence: GTCAAGCCTTGGGTTCTAACCTGTTGCTG (site GTCAACCCTCA)
- recombinant barcode read abundance (log10): 0.184

Sequence: GTCAAGCCTTGGGTTCTAACCTGTTGCTG (site GTCAAGCCTCA)
- recombinant barcode read abundance (log10): 1.23

Sequence: GTCAAGCCTTGGGTTCTAACCTGTTGCTG (site GTCAATCCTCA)
- recombinant barcode read abundance (log10): 0.0295

Sequence: GTCAAGTCTTGGGTTCTAACCTGTTGCTC (site CGACTCCCTAC)
- recombinant barcode read abundance (log10): 0.101

Sequence: GTCAAGTCTTGGGTTCTAACCTGTTGCTC (site GTCAAGTCTGA)
- recombinant barcode read abundance (log10): 0.694

Sequence: GTCAATTCTTGGGTTCTAACCTGTTGCCT (site GACACTTCTAG)
- recombinant barcode read abundance (log10): 0.109

Sequence: GTCAATTCTTGGGTTCTAACCTGTTGCCT (site GTCAATTCTAG)
- recombinant barcode read abundance (log10): 0.684

Sequence: GTCACAACTTGGGTTCTAACCTGTTGCCG (site AGGTTTGCTAA)
- recombinant barcode read abundance (log10): 0.056

Sequence: GTCACAACTTGGGTTCTAACCTGTTGCCG (site GTCACAACTCG)
- recombinant barcode read abundance (log10): 0.339

Sequence: GTCACAGCTTGGGTTCTAACCTGTTGCCT (site GTCAAAGCTTG)
- recombinant barcode read abundance (log10): 0.0492

Sequence: GTCACAGCTTGGGTTCTAACCTGTTGCCT (site GTCACAGCTAG)
- recombinant barcode read abundance (log10): 1.23

Sequence: GTCAGATCTTGGGTTCTAACCTGTTGCTT (site GTCAGATCTAA)
- recombinant barcode read abundance (log10): 0.398

Sequence: GTCAGATCTTGGGTTCTAACCTGTTGCTT (site TCGTTCGCTCG)
- recombinant barcode read abundance (log10): 0.0896

Sequence: GTCAGGGCTTGGGTTCTAACCTGTTGCCT (site GTCAGGGCTAG)
- recombinant barcode read abundance (log10): 0.275

Sequence: GTCAGGGCTTGGGTTCTAACCTGTTGCCT (site GTCATGGCTAG)
- recombinant barcode read abundance (log10): 0.197

Sequence: GTCATGCCTTGGGTTCTAACCTGTTGCGT (site GTCATGCCTAC)
- recombinant barcode read abundance (log10): 1.58

Sequence: GTCATGCCTTGGGTTCTAACCTGTTGCGT (site GTCTTCCCTAC)
- recombinant barcode read abundance (log10): 0.125

Sequence: GTCATGTCTTGGGTTCTAACCTGTTGCTG (site ACAGGTCCTTC)
- recombinant barcode read abundance (log10): 0.0358

Sequence: GTCATGTCTTGGGTTCTAACCTGTTGCTG (site GTCATGTCTCA)
- recombinant barcode read abundance (log10): 1.5

Sequence: GTCCAGCCTTGGGTTCTAACCTGTTGCAT (site CTCTAGCCTAT)
- recombinant barcode read abundance (log10): 0.0778

Sequence: GTCCAGCCTTGGGTTCTAACCTGTTGCAT (site GTCCAGCCTAT)
- recombinant barcode read abundance (log10): 1.98

Sequence: GTCCCTCCTTGGGTTCTAACCTGTTGCAT (site GTCCCTCCTAA)
- recombinant barcode read abundance (log10): 0.746

Sequence: GTCCCTCCTTGGGTTCTAACCTGTTGCAT (site GTCCCTCCTAC)
- recombinant barcode read abundance (log10): 0.405

Sequence: GTCCCTCCTTGGGTTCTAACCTGTTGCAT (site GTCCCTCCTAG)
- recombinant barcode read abundance (log10): 0.16

Sequence: GTCCCTCCTTGGGTTCTAACCTGTTGCAT (site GTCCCTCCTAT)
- recombinant barcode read abundance (log10): 1.96

Sequence: GTCCCTCCTTGGGTTCTAACCTGTTGCTT (site GTCCCTCCTAA)
- recombinant barcode read abundance (log10): 0.94

Sequence: GTCCCTCCTTGGGTTCTAACCTGTTGCTT (site GTCCCTCCTAC)
- recombinant barcode read abundance (log10): 0.104

Sequence: GTCCCTCCTTGGGTTCTAACCTGTTGCTT (site GTCCCTCCTAG)
- recombinant barcode read abundance (log10): 0.201

Sequence: GTCCCTCCTTGGGTTCTAACCTGTTGCTT (site GTCCCTCCTAT)
- recombinant barcode read abundance (log10): 0.453

Sequence: GTCCGTCCTTGGGTTCTAACCTGTTGCAT (site GTCCGTCCTAA)
- recombinant barcode read abundance (log10): 0.178

Sequence: GTCCGTCCTTGGGTTCTAACCTGTTGCAT (site GTCCGTCCTAC)
- recombinant barcode read abundance (log10): 0.688

Sequence: GTCCGTCCTTGGGTTCTAACCTGTTGCAT (site GTCCGTCCTAG)
- recombinant barcode read abundance (log10): 0.129

Sequence: GTCCGTCCTTGGGTTCTAACCTGTTGCAT (site GTCCGTCCTAT)
- recombinant barcode read abundance (log10): 1.77

Sequence: GTCCTAACTTGGGTTCTAACCTGTTGCAC (site GTCCTAACTGT)
- recombinant barcode read abundance (log10): 2.08

Sequence: GTCCTAACTTGGGTTCTAACCTGTTGCAC (site GTCCTACCTTT)
- recombinant barcode read abundance (log10): 0.0749

Sequence: GTCCTACCTTGGGTTCTAACCTGTTGCCT (site GTCATACCTAG)
- recombinant barcode read abundance (log10): 0.0144

Sequence: GTCCTACCTTGGGTTCTAACCTGTTGCCT (site GTCCTACCTAG)
- recombinant barcode read abundance (log10): 1.54

Sequence: GTCCTACCTTGGGTTCTAACCTGTTGCCT (site GTCGTACCTAG)
- recombinant barcode read abundance (log10): 0.503

Sequence: GTCCTACCTTGGGTTCTAACCTGTTGCCT (site GTCTTACCTAG)
- recombinant barcode read abundance (log10): 0.588

Sequence: GTCGACACTTGGGTTCTAACCTGTTGCCT (site GTCGACACTAG)
- recombinant barcode read abundance (log10): 1.5

Sequence: GTCGACACTTGGGTTCTAACCTGTTGCCT (site GTCGAGTCTAG)
- recombinant barcode read abundance (log10): 0.126

Sequence: GTCGACGCTTGGGTTCTAACCTGTTGCCT (site GTCGACCCTAG)
- recombinant barcode read abundance (log10): 0.158

Sequence: GTCGACGCTTGGGTTCTAACCTGTTGCCT (site GTCGACGCTAG)
- recombinant barcode read abundance (log10): 0.635

Sequence: GTCGCCACTTGGGTTCTAACCTGTTGCCT (site GTAGCCACTAG)
- recombinant barcode read abundance (log10): 0.239

Sequence: GTCGCCACTTGGGTTCTAACCTGTTGCCT (site GTCGCCACTAG)
- recombinant barcode read abundance (log10): 0.0549

Sequence: GTCGCCACTTGGGTTCTAACCTGTTGCCT (site GTGGCCACTAG)
- recombinant barcode read abundance (log10): 0.159

Sequence: GTCGCCACTTGGGTTCTAACCTGTTGCCT (site GTTGCCACTAG)
- recombinant barcode read abundance (log10): 0.196

Sequence: GTCGCGGCTTGGGTTCTAACCTGTTGCCT (site GTCGCGACTAG)
- recombinant barcode read abundance (log10): 0.454

Sequence: GTCGCGGCTTGGGTTCTAACCTGTTGCCT (site GTCGCGCCTAG)
- recombinant barcode read abundance (log10): 0.182

Sequence: GTCGCGGCTTGGGTTCTAACCTGTTGCCT (site GTCGCGGCTAG)
- recombinant barcode read abundance (log10): 0.418

Sequence: GTCGCGGCTTGGGTTCTAACCTGTTGCCT (site GTCGCGTCTAG)
- recombinant barcode read abundance (log10): 0.324

Sequence: GTCGCGTCTTGGGTTCTAACCTGTTGCCT (site GTCGCGACTAG)
- recombinant barcode read abundance (log10): 0.198

Sequence: GTCGCGTCTTGGGTTCTAACCTGTTGCCT (site GTCGCGCCTAG)
- recombinant barcode read abundance (log10): 0.738

Sequence: GTCGCGTCTTGGGTTCTAACCTGTTGCCT (site GTCGCGGCTAG)
- recombinant barcode read abundance (log10): 0.392

Sequence: GTCGCGTCTTGGGTTCTAACCTGTTGCCT (site GTCGCGTCTAG)
- recombinant barcode read abundance (log10): 0.328

Sequence: GTCGGAGCTTGGGTTCTAACCTGTTGCCG (site GTCGGAGCTCA)
- recombinant barcode read abundance (log10): 0.0109

Sequence: GTCGGAGCTTGGGTTCTAACCTGTTGCCG (site GTCGGAGCTCC)
- recombinant barcode read abundance (log10): 0.152

Sequence: GTCGGAGCTTGGGTTCTAACCTGTTGCCG (site GTCGGAGCTCG)
- recombinant barcode read abundance (log10): 0.218

Sequence: GTCGGAGCTTGGGTTCTAACCTGTTGCCG (site GTCGGAGCTCT)
- recombinant barcode read abundance (log10): 0.435

Sequence: GTCGGAGCTTGGGTTCTAACCTGTTGCGG (site GTCGGAGCTCA)
- recombinant barcode read abundance (log10): 0.282

Sequence: GTCGGAGCTTGGGTTCTAACCTGTTGCGG (site GTCGGAGCTCC)
- recombinant barcode read abundance (log10): 1.97

Sequence: GTCGGAGCTTGGGTTCTAACCTGTTGCGG (site GTCGGAGCTCG)
- recombinant barcode read abundance (log10): 0.0393

Sequence: GTCGGAGCTTGGGTTCTAACCTGTTGCGG (site GTCGGAGCTCT)
- recombinant barcode read abundance (log10): 1.29
